ChEMBL document CHEMBL1154549, “Three new triterpenoids from Peganum nigellastrum” (J Nat Prod, 2000)

Molecular target: DNA topoisomerase 2-alpha (Homo sapiens, UniProt P11388)
Assay: Inhibition of human topoisomerase 2

Sequence of DNA topoisomerase 2-alpha (P11388 whole entry): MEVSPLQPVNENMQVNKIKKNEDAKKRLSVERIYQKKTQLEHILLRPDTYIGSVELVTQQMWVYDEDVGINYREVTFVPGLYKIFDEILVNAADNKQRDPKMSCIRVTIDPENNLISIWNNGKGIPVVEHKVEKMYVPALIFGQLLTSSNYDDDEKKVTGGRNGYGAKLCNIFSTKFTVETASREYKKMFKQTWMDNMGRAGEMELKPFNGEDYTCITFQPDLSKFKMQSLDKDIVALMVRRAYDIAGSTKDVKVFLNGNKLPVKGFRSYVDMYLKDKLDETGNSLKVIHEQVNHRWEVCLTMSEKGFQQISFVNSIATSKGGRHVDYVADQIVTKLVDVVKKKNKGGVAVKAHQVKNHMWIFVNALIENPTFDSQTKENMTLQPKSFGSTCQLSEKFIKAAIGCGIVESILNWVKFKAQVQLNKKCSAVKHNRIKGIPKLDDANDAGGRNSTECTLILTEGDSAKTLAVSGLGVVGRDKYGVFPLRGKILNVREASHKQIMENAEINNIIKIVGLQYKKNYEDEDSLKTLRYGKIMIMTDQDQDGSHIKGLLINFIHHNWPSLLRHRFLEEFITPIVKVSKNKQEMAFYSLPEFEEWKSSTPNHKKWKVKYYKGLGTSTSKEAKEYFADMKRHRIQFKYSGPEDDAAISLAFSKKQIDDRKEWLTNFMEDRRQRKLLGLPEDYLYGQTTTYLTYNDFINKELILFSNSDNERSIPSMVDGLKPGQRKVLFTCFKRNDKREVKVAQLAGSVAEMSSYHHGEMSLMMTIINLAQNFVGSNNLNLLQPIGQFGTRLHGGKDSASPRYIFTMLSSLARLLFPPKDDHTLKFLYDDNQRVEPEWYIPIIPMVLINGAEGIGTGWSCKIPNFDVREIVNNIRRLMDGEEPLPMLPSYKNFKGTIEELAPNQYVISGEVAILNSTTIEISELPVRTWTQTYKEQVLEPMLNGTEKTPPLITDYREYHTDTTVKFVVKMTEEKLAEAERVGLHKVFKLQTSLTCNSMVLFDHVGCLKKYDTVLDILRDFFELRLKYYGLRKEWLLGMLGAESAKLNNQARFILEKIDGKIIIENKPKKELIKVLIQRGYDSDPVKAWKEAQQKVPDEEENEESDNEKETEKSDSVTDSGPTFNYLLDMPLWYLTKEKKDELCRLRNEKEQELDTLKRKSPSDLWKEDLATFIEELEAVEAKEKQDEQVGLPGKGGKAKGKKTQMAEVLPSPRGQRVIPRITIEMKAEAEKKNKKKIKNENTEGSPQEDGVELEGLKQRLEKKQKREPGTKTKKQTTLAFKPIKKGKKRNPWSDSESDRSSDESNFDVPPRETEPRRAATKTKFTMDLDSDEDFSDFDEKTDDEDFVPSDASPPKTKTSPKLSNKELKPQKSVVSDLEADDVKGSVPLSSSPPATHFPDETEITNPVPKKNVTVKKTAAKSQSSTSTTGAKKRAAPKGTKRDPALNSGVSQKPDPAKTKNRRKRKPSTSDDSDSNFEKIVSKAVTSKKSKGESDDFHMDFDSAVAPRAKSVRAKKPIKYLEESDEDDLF

Row | IC50 [µM] | Structure (SMILES)
1 | 8.9 | C=C(C)[C@@H]1CC[C@]2(C(=O)OC)CC[C@]3(CO)[C@H](CC[C@@H]4[C@@]5(C)CC[C@@H](O)C(C)(C)[C@@H]5CC[C@]43C)[C@@H]12
2 | 13.9 | C[C@H]([C@H](C)N1CC(=O)NC(=O)C1)N1CC(=O)NC(=O)C1 [ICRF-193]
